Measurements taken from PubChem BioAssay (NCI).
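Each compound was tested at five concentrations against cells in 96-well plates for 48 hours. Abbreviation: GI50, concentration required for 50% inhibition of growth. The concentration for full growth arrest is given as TGI.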

Experiments:
Experiment in all cases: DTP human tumour cell line panel, 48 h
786-0 renal = system: 786-0 renal
A498 renal = system: A498 renal
A549 NSCLC = system: A549 NSCLC
ACHN renal = system: ACHN renal
BT-549 breast = system: BT-549 breast
CAKI-1 renal = system: CAKI-1 renal
CCRF-CEM leukemia = system: CCRF-CEM leukemia
COLO 205 colon = system: COLO 205 colon
DU-145 prostate = system: DU-145 prostate
EKVX NSCLC = system: EKVX NSCLC
HCC-2998 colon = system: HCC-2998 colon
HCT-116 colon = system: HCT-116 colon
HCT-15 colon = system: HCT-15 colon
HL-60(TB) leukemia = system: HL-60(TB) leukemia
HOP-62 NSCLC = system: HOP-62 NSCLC
HOP-92 NSCLC = system: HOP-92 NSCLC
HS 578T breast = system: HS 578T breast
HT29 colon = system: HT29 colon
IGROV1 ovarian = system: IGROV1 ovarian
K-562 leukemia = system: K-562 leukemia
KM12 colon = system: KM12 colon
LOX IMVI melanoma = system: LOX IMVI melanoma
M14 melanoma = system: M14 melanoma
MALME-3M melanoma = system: MALME-3M melanoma
MCF7 breast = system: MCF7 breast
MDA-MB-231 breast = system: MDA-MB-231 breast
MDA-MB-435 = system: MDA-MB-435
MOLT-4 leukemia = system: MOLT-4 leukemia
NCI-H226 lung = system: NCI-H226 lung
NCI-H23 lung = system: NCI-H23 lung
NCI-H460 lung = system: NCI-H460 lung
NCI-H522 lung = system: NCI-H522 lung
NCI/ADR-RES ovarian = system: NCI/ADR-RES ovarian
OVCAR-3 ovarian = system: OVCAR-3 ovarian
OVCAR-4 ovarian = system: OVCAR-4 ovarian
OVCAR-5 ovarian = system: OVCAR-5 ovarian
OVCAR-8 ovarian = system: OVCAR-8 ovarian
PC-3 prostate = system: PC-3 prostate
SF-268 CNS = system: SF-268 CNS
SF-295 CNS = system: SF-295 CNS
SF-539 CNS = system: SF-539 CNS
SK-MEL-2 melanoma = system: SK-MEL-2 melanoma
SK-MEL-28 melanoma = system: SK-MEL-28 melanoma
SK-MEL-5 melanoma = system: SK-MEL-5 melanoma
SK-OV-3 ovarian = system: SK-OV-3 ovarian
SN12C renal = system: SN12C renal
SNB-19 CNS = system: SNB-19 CNS
SNB-75 CNS = system: SNB-75 CNS
SR leukemia = system: SR leukemia
SW-620 colon = system: SW-620 colon
T-47D breast = system: T-47D breast
TK-10 renal = system: TK-10 renal
U251 CNS = system: U251 CNS
UACC-257 melanoma = system: UACC-257 melanoma
UACC-62 melanoma = system: UACC-62 melanoma
UO-31 renal = system: UO-31 renal

CC(Nc1c(C#N)cnc2ccc(-c3cncc(O)c3)cc12)c1ccccc1 (configuration not stated)
GI50 (786-0 renal): 2.74 µM
TGI (786-0 renal): 10.4 µM
GI50 (A498 renal): 2.72 µM
TGI (A498 renal): 18 µM
GI50 (A549 NSCLC): 3.57 µM
TGI (A549 NSCLC): 47.3 µM
GI50 (ACHN renal): 1.4 µM
TGI (ACHN renal): 10.7 µM
GI50 (BT-549 breast): 0.547 µM
TGI (BT-549 breast): 4.54 µM
GI50 (CAKI-1 renal): 2.24 µM
TGI (CAKI-1 renal): 13.5 µM
GI50 (CCRF-CEM leukemia): 2.4 µM
TGI (CCRF-CEM leukemia): > 100 µM
GI50 (COLO 205 colon): 14.9 µM
TGI (COLO 205 colon): 36.1 µM
GI50 (DU-145 prostate): 1.48 µM
TGI (DU-145 prostate): 10.6 µM
GI50 (EKVX NSCLC): 2.07 µM
TGI (EKVX NSCLC): 12.6 µM
GI50 (HCC-2998 colon): 3.73 µM
TGI (HCC-2998 colon): 14.8 µM
GI50 (HCT-116 colon): 2.4 µM
TGI (HCT-116 colon): 12.4 µM
GI50 (HCT-15 colon): 1.69 µM
TGI (HCT-15 colon): 11.5 µM
GI50 (HL-60(TB) leukemia): 4.22 µM
TGI (HL-60(TB) leukemia): > 100 µM
GI50 (HOP-62 NSCLC): 2.39 µM
TGI (HOP-62 NSCLC): 16 µM
GI50 (HOP-92 NSCLC): 0.409 µM
TGI (HOP-92 NSCLC): 6.02 µM
GI50 (HS 578T breast): 1.08 µM
TGI (HS 578T breast): 4.82 µM
GI50 (HT29 colon): 18.1 µM
TGI (HT29 colon): > 100 µM
GI50 (IGROV1 ovarian): 0.948 µM
TGI (IGROV1 ovarian): 3.91 µM
GI50 (K-562 leukemia): 2.51 µM
TGI (K-562 leukemia): > 100 µM
GI50 (KM12 colon): 3.09 µM
TGI (KM12 colon): 12.2 µM
GI50 (LOX IMVI melanoma): 1.31 µM
TGI (LOX IMVI melanoma): 8.51 µM
GI50 (M14 melanoma): 2.08 µM
TGI (M14 melanoma): 11.6 µM
GI50 (MALME-3M melanoma): 0.407 µM
TGI (MALME-3M melanoma): 3.4 µM
GI50 (MCF7 breast): 1.91 µM
TGI (MCF7 breast): 10.2 µM
GI50 (MDA-MB-231 breast): 1.67 µM
TGI (MDA-MB-231 breast): 11.9 µM
GI50 (MDA-MB-435): 2.94 µM
TGI (MDA-MB-435): 15.5 µM
GI50 (MOLT-4 leukemia): 2.11 µM
TGI (MOLT-4 leukemia): > 100 µM
GI50 (NCI-H226 lung): 1.99 µM
TGI (NCI-H226 lung): 13.2 µM
GI50 (NCI-H23 lung): 1.86 µM
TGI (NCI-H23 lung): 7.88 µM
GI50 (NCI-H460 lung): 2.57 µM
TGI (NCI-H460 lung): 11.4 µM
GI50 (NCI-H522 lung): 2.31 µM
TGI (NCI-H522 lung): 13.5 µM
GI50 (NCI/ADR-RES ovarian): 3.36 µM
TGI (NCI/ADR-RES ovarian): 23.5 µM
GI50 (OVCAR-3 ovarian): 1.05 µM
TGI (OVCAR-3 ovarian): 5.84 µM
GI50 (OVCAR-4 ovarian): 1.59 µM
TGI (OVCAR-4 ovarian): 9.49 µM
GI50 (OVCAR-5 ovarian): 4.3 µM
TGI (OVCAR-5 ovarian): 30.7 µM
GI50 (OVCAR-8 ovarian): 1.83 µM
TGI (OVCAR-8 ovarian): 15.4 µM
GI50 (PC-3 prostate): 1.65 µM
TGI (PC-3 prostate): > 100 µM
GI50 (SF-268 CNS): 1.99 µM
TGI (SF-268 CNS): 12 µM
GI50 (SF-295 CNS): 2.87 µM
TGI (SF-295 CNS): 11.7 µM
GI50 (SF-539 CNS): 2.14 µM
TGI (SF-539 CNS): 11 µM
GI50 (SK-MEL-2 melanoma): 2.03 µM
TGI (SK-MEL-2 melanoma): 6.44 µM
GI50 (SK-MEL-28 melanoma): 1.86 µM
TGI (SK-MEL-28 melanoma): 10.8 µM
GI50 (SK-MEL-5 melanoma): 1.24 µM
TGI (SK-MEL-5 melanoma): 2.57 µM
GI50 (SK-OV-3 ovarian): 3.38 µM
TGI (SK-OV-3 ovarian): 10.7 µM
GI50 (SN12C renal): 0.721 µM
TGI (SN12C renal): 6.68 µM
GI50 (SNB-19 CNS): 1.9 µM
TGI (SNB-19 CNS): 7.66 µM
GI50 (SNB-75 CNS): 0.961 µM
TGI (SNB-75 CNS): 17.6 µM
GI50 (SR leukemia): 2.26 µM
TGI (SR leukemia): > 100 µM
GI50 (SW-620 colon): 3.56 µM
TGI (SW-620 colon): 11.4 µM
GI50 (T-47D breast): 1.68 µM
TGI (T-47D breast): 13.8 µM
GI50 (TK-10 renal): 4.45 µM
TGI (TK-10 renal): 50 µM
GI50 (U251 CNS): 1.88 µM
TGI (U251 CNS): 17.1 µM
GI50 (UACC-257 melanoma): 4.32 µM
TGI (UACC-257 melanoma): 45.6 µM
GI50 (UACC-62 melanoma): 1.7 µM
TGI (UACC-62 melanoma): 4.16 µM
GI50 (UO-31 renal): 0.408 µM
TGI (UO-31 renal): 5.61 µM
